Measurements from US8329726B2, “Inhibitors of VEGF receptor and HGF receptor signaling” (MethylGene Inc., priority 2005, dated 2012).

Legend:
[1] = molecular target: T1, VEGF receptor KDR (Homo sapiens, UniProt P35968); assay: In vitro receptor tyrosine kinase assay (DELFIA), VEGF receptor KDR; assay type: biochemical; details: read-out: VEGFR IC50
T1 construct: made in house; host or cells: Sf9 cells (Spodoptera frugiperda), baculovirus

[2] = molecular target: T2, recombinant human c-Met/HGF receptor (Homo sapiens, UniProt P08581); assay: In vitro receptor tyrosine kinase assay (DELFIA), c-Met/HGF receptor; assay type: biochemical; details: read-out: CMET IC50
T2 construct: His tag (pBlueBacHis2A vector); made in house; host or cells: Hi-5 cells (Trichoplusia ni), baculovirus
T2 sequence (P08581 1078-1337): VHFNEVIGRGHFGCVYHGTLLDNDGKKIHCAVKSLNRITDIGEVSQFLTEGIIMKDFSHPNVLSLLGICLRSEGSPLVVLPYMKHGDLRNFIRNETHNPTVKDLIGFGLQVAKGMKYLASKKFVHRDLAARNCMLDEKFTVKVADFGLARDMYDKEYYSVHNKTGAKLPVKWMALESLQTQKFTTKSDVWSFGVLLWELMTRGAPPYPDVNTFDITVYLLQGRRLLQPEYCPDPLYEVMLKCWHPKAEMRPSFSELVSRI
Experimental: Cell pellets were frozen at −80° C. until purification was performed.
The coated plates were washed and stored at 4° C. […] After incubation, the kinase reactions were quenched with EDTA and the plates were washed.

[3] = system: DU145; assay: DU145 scattering inhibition (HGF dependent scattering); assay type: cell-based; details: Homo sapiens, DU-145; HGF dependent scattering, DU145 cells; read-out: DU145 SCATTERING INHIB IC50
Source text: (§1) HGF has well known activity in terms of inducing scattering and migration (wound healing) (Wells et al., Cell Motil Cytoskeleton. 2005 November 62(3):180-94; Miura et al., Urology 2001 December 58(6):1064-9; Nishimura et al., Int J Urol. 1998 May 5(3):276-81; Wang et al., Mol Cancer Ther. 2003 November; 2(11):1085-92; and Christensen et al., Cancer Res. 2003 Nov. 1; 63(21):7345-55).

[4] = system: A549; assay: A549 wound healing inhibition (HGF dependent migration); assay type: cell-based; details: Homo sapiens, A549 cells, read-out: A549 WOUND HEALING INHIB IC50
Source text: as §1

T1 sequence (P35968 806-1356): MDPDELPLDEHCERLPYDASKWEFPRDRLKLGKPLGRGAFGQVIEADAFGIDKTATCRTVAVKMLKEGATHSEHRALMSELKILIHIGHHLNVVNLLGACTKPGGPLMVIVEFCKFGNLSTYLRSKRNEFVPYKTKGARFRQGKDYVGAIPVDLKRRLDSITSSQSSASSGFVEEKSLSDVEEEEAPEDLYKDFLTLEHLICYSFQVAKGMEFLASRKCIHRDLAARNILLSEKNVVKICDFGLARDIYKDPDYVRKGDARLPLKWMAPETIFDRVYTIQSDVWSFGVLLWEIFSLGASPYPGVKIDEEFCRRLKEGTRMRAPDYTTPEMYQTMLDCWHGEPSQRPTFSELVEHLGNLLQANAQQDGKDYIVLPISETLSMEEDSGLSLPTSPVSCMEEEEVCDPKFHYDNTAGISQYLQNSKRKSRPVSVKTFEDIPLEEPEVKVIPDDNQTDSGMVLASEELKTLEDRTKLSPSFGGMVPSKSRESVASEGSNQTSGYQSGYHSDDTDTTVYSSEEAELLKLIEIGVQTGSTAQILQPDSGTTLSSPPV

SMILES	IC50 [1]	IC50 [2]	IC50 [3]	IC50 [4]
COc1ccccc1CCNC(=O)C(=O)Nc1ccc(Oc2ccnc3cc(-c4ccc(OCCN5CCOCC5)c(OC)c4)sc23)c(F)c1	> 0.5 µM	0.25 to 0.5 µM	> 10 µM	1 to 5 µM
CCn1cnc(-c2cc3nccc(Oc4ccc(NC(=O)C(=O)NCCc5ccccc5F)cc4F)c3s2)c1	0.05 to 0.25 µM	0.05 to 0.25 µM	> 10 µM	1 to 5 µM
O=C(CC(=O)Nc1ccccc1F)Nc1ccc(Oc2ccnc3cc(C#CCN4CCOCC4)sc23)c(F)c1	0.25 to 0.5 µM	0.05 to 0.25 µM	> 10 µM	1 to 5 µM
COc1ccccc1NC(=O)CC(=O)Nc1ccc(Oc2ccnc3cc(C#CCN(C)C)sc23)c(F)c1	0.05 to 0.25 µM	0.05 to 0.25 µM	> 10 µM	> 10 µM
CN(C)CC#Cc1cc2nccc(Oc3ccc(NC(=O)CC(=O)Nc4ccccc4F)cc3F)c2s1	0.05 to 0.25 µM	0.05 to 0.25 µM	1 to 5 µM	> 10 µM
CCn1cncc1-c1cc2nccc(Oc3ccc(NC(=O)CC(=O)Nc4ccccc4F)cc3F)c2s1	0.05 to 0.25 µM	0.05 to 0.25 µM	1 to 5 µM	1 to 5 µM
CCn1cncc1-c1cc2nccc(Oc3ccc(NC(=O)CC(=O)Nc4ccccc4OC)cc3F)c2s1	0.05 to 0.25 µM	0.05 to 0.25 µM	< 1 µM	1 to 5 µM
COc1ccccc1NC(=O)CC(=O)Nc1ccc(Oc2ccnc3cc(-c4cccc(CN5CCOCC5)c4)sc23)c(F)c1	0.05 to 0.25 µM	0.05 to 0.25 µM	1 to 5 µM	> 10 µM
O=C(CC(=O)Nc1ccccc1F)Nc1ccc(Oc2ccnc3cc(-c4cccc(CN5CCOCC5)c4)sc23)c(F)c1	0.05 to 0.25 µM	< 0.05 µM	1 to 5 µM	1 to 5 µM
CCn1cnc(-c2cc3nccc(Oc4ccc(NC(=O)CC(Nc5ccc(F)cc5)C(F)(F)F)cc4F)c3s2)c1 (stereo not shown)	0.05 to 0.25 µM	0.25 to 0.5 µM	1 to 5 µM	> 10 µM
Cn1cnc(-c2cc3nccc(Oc4ccc(NC(=O)N5CCN(N6CCCCC6)C5=O)cc4F)c3s2)c1	0.05 to 0.25 µM	< 0.05 µM	< 1 µM	1 to 5 µM
O=C(Nc1ccc(Nc2ccnc3cc(-c4cn(CCN5CCCC5)cn4)sc23)c(F)c1)N1CCN(c2ccccc2)C1=O	0.25 to 0.5 µM	< 0.05 µM	> 10 µM	> 10 µM
Cn1cnc(-c2cc3nccc(Oc4ccc(NC(=O)N5CCN(c6ccccc6)C5=S)cc4F)c3s2)c1	> 0.5 µM	> 0.5 µM	> 10 µM	> 10 µM
Cn1cnc(-c2cc3nccc(Oc4ccc(NC(=O)N5CCN(c6ccccc6)C5=O)cc4)c3s2)c1	0.05 to 0.25 µM	< 0.05 µM	< 1 µM	< 1 µM
COCCNCc1ccc(-c2cc3nccc(Oc4ccc(NC(=O)N5CCN(c6ccc(F)cc6)C5=O)cc4F)c3s2)cc1	< 0.05 µM	< 0.05 µM	< 1 µM	< 1 µM
CN(C)[C@H]1CCN(C(=O)c2cc3nccc(Oc4ccc(NC(=O)N5CCN(c6ccccc6)C5=O)cc4F)c3s2)C1	< 0.05 µM	< 0.05 µM	< 1 µM	< 1 µM
CC(=O)N1CC=C(c2cc3nccc(Oc4ccc(NC(=O)N5CCN(c6ccc(F)cc6)C5=O)cc4F)c3s2)CC1	< 0.05 µM	< 0.05 µM	< 1 µM	< 1 µM
COCCNCc1ccc(-c2cc3nccc(Oc4ccc(NC(=O)N5CCN(c6ccccc6)C5=O)cc4F)c3s2)cc1	< 0.05 µM	< 0.05 µM	< 1 µM	< 1 µM
Cn1cnc(-c2cc3nccc(Oc4ccc(NC(CC(=O)Nc5ccc(F)cc5)C(F)(F)F)cc4)c3s2)c1 (stereo not shown)	< 0.05 µM	0.05 to 0.25 µM	1 to 5 µM	1 to 5 µM

Next, values leading:

IC50 [1]	IC50 [2]	IC50 [3]	IC50 [4]	SMILES
< 0.05 µM	0.05 to 0.25 µM	1 to 5 µM	1 to 5 µM	COc1ccccc1NC(=O)CC(=O)Nc1ccc(Oc2ccnc3cc(-c4ccc(OCCN5CCOCC5)cc4)sc23)c(F)c1
< 0.05 µM	< 0.05 µM	< 1 µM	< 1 µM	CCn1cnc(-c2cc3nccc(Oc4ccc(NC(=O)CC(=O)Nc5ccccc5)cc4F)c3s2)c1C
< 0.05 µM	0.25 to 0.5 µM	> 10 µM	5 to 10 µM	COc1ccccc1CCNC(=O)C(=O)Nc1ccc(Oc2ccnc3cc(-c4cn(C)cn4)sc23)c(F)c1
< 0.05 µM	0.05 to 0.25 µM	< 1 µM	< 1 µM	COc1ccccc1NC(=O)CC(=O)Nc1ccc(Oc2ccnc3cc(-c4cn(C)cn4)sc23)c(F)c1
< 0.05 µM	< 0.05 µM	< 1 µM	< 1 µM	Cn1cnc(-c2cc3nccc(Oc4ccc(NC(=O)CC(=O)Nc5ccccc5F)cc4F)c3s2)c1
< 0.05 µM	0.05 to 0.25 µM	1 to 5 µM	< 1 µM	CCn1cnc(-c2cc3nccc(Oc4ccc(NC(=O)CC(=O)Nc5ccc(OC)cc5)cc4F)c3s2)c1
< 0.05 µM	0.05 to 0.25 µM	1 to 5 µM	< 1 µM	CCn1cnc(-c2cc3nccc(Oc4ccc(NC(=O)CC(=O)Nc5cccc(F)c5)cc4F)c3s2)c1
< 0.05 µM	0.05 to 0.25 µM	1 to 5 µM	1 to 5 µM	CCn1cnc(-c2cc3nccc(Oc4ccc(NC(=O)CC(=O)Nc5cccc(OC)c5)cc4F)c3s2)c1
< 0.05 µM	0.05 to 0.25 µM	> 10 µM	1 to 5 µM	CCn1cnc(-c2cc3nccc(Oc4ccc(NC(=O)C(=O)NCCc5ccccc5OC)cc4F)c3s2)c1
< 0.05 µM	0.05 to 0.25 µM	1 to 5 µM	1 to 5 µM	COc1ccccc1NC(=O)CC(=O)Nc1ccc(Oc2ccnc3cc(C(=O)N4CC(O)C4)sc23)c(F)c1
< 0.05 µM	< 0.05 µM	< 1 µM	< 1 µM	O=C(Nc1ccc(Oc2ccnc3cc(-c4ccc(CN5CCNCC5)cc4)sc23)c(F)c1)N1CCN(c2ccccc2)C1=O
< 0.05 µM	< 0.05 µM	< 1 µM	< 1 µM	CNC(=O)N1CCN(Cc2ccc(-c3cc4nccc(Oc5ccc(NC(=O)N6CCN(c7ccccc7)C6=O)cc5F)c4s3)cc2)CC1
< 0.05 µM	< 0.05 µM	< 1 µM	< 1 µM	CCn1ccnc1-c1cc2nccc(Oc3ccc(NC(=O)N4CCN(c5ccccc5)C4=O)cc3F)c2s1
< 0.05 µM	0.05 to 0.25 µM	< 1 µM	< 1 µM	Cn1ccnc1-c1cc2nccc(Oc3ccc(NC(=O)N4CCN(c5ccc(F)cc5)C4=O)cc3F)c2s1
< 0.05 µM	0.05 to 0.25 µM	< 1 µM	< 1 µM	Cn1cnc(-c2cc3nccc(Oc4ccc(NC(CC(=O)Nc5ccc(F)cc5)C(F)(F)F)cc4F)c3s2)c1 (stereo not shown)
< 0.05 µM	0.05 to 0.25 µM	< 1 µM	< 1 µM	Cn1ccnc1-c1cc2nccc(Oc3ccc(NC(=S)N4CCN(c5ccc(F)cc5)C4=O)cc3F)c2s1
< 0.05 µM	< 0.05 µM	< 1 µM	< 1 µM	CCn1cnc(-c2cc3nccc(Oc4ccc(NC(=O)N5CCN(c6ccc(F)cc6)C5=O)cc4F)c3s2)c1
< 0.05 µM	< 0.05 µM	< 1 µM	< 1 µM	O=C(Nc1ccc(Oc2ccnc3cc(-c4cn(CCCN5CCCC5)cn4)sc23)c(F)c1)N1CCN(c2ccc(F)cc2)C1=O
< 0.05 µM	0.05 to 0.25 µM	> 10 µM	5 to 10 µM	O=C(Nc1ccc(Oc2ccnc3cc(-c4cn(CCCN5CCCC5)cn4)sc23)c(F)c1)N1CCN(c2ccccc2F)C1=O
< 0.05 µM	< 0.05 µM	< 1 µM	< 1 µM	CCn1cnc(-c2cc3nccc(Oc4ccc(NC(=O)N5CCN(c6ccccc6F)C5=O)cc4F)c3s2)c1
< 0.05 µM	< 0.05 µM	< 1 µM	1 to 5 µM	CCn1cnc(-c2cc3nccc(Oc4ccc(NC(=O)N5CCN(c6ccccc6OC)C5=O)cc4F)c3s2)c1
< 0.05 µM	< 0.05 µM	< 1 µM	< 1 µM	CN(C)Cc1ccc(-c2cc3nccc(Oc4ccc(NC(=O)N5CCN(c6ccc(F)cc6)C5=O)cc4F)c3s2)nc1
< 0.05 µM	< 0.05 µM	< 1 µM	< 1 µM	CN(C)CCn1cnc(-c2cc3nccc(Oc4ccc(NC(=O)N5CCN(c6ccc(F)cc6)C5=O)cc4F)c3s2)c1
< 0.05 µM	< 0.05 µM	< 1 µM	1 to 5 µM	Cn1cnc(-c2cc3nccc(Oc4ccc(NC(=O)N5CCN(C6CCCCC6)C5=O)cc4F)c3s2)c1
< 0.05 µM	< 0.05 µM	< 1 µM	< 1 µM	CCn1cnc(-c2cc3nccc(Oc4ccc(NC(=S)N5CCN(c6ccccc6)C5=O)cc4F)c3s2)c1
< 0.05 µM	< 0.05 µM	< 1 µM	< 1 µM	O=C1N(C(=S)Nc2ccc(Oc3ccnc4cc(-c5cn(CCN6CCCC6)cn5)sc34)c(F)c2)CCN1c1ccc(F)cc1
< 0.05 µM	> 0.5 µM	> 10 µM	1 to 5 µM	COc1ccccc1NC(=O)CC(Nc1ccc(Oc2ccnc3cc(-c4cn(C)cn4)sc23)c(F)c1)C(F)(F)F (stereo not shown)
